The target of one assay is hGLP-1R (Homo sapiens, UniProt P43220). In words: Functional cAMP formation (HTRF) in HEK-293 clonal cells expressing hGLP-1R, 0.1% bovine casein, without or with 1.0% human serum albumin. Type of assay: cell-based. The arrangement: expressed in transfected cells. As to conditions: for EC50: cAMP, 0.1% bovine casein (no human serum albumin), geometric mean, read-out: hGLP-1R EC50, nM (SEM, n). The method, boiled down: (§1)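 Cells were stimulated with peptide for 30 min at 37° C, then lysed in buffer carrying cAMP-d2 and anti-cAMP Eu3+-cryptate for a competitive HTRF read after at least 60 min at room temperature. The 665/620 nm ratio was converted to nM cAMP against a standard curve.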
hGLP-1R, sequence (P43220 24-463): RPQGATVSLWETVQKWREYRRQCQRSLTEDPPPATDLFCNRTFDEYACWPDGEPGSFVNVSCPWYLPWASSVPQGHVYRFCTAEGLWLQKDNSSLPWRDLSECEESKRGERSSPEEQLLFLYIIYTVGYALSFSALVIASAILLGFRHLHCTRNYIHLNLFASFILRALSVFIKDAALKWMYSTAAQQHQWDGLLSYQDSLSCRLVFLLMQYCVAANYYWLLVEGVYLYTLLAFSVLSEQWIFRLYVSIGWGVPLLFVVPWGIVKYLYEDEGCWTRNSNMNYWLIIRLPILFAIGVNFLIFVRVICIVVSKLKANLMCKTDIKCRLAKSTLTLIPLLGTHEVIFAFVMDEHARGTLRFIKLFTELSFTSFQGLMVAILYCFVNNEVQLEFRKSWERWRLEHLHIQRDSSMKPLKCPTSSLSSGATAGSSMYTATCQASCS
Background: Cyclic AMP is a second messenger, typically raised through Gs and lowered through Gi signalling.

For assay [1], the target named is T1, human GLP-1 receptor (hGLP-1R) (Homo sapiens, UniProt P43220).
T1 construct: expressed in transfected cells; crude membranes
T1 sequence (P43220 24-463): as above
In words: [125I]-GLP-1 binding, SPA with membranes of HEK293 cells expressing hGLP-1R. As to conditions: human GLP-1R; geometric mean (SEM, n); read-out: Binding Affinity Ki, nM (SEM, n) hGLP-1R.

For assay [2], the target named is T2, human GIP receptor (hGIPR) (Homo sapiens, UniProt P48546).
T2 construct: expressed in transfected cells; crude membranes
T2 sequence (P48546 22-466): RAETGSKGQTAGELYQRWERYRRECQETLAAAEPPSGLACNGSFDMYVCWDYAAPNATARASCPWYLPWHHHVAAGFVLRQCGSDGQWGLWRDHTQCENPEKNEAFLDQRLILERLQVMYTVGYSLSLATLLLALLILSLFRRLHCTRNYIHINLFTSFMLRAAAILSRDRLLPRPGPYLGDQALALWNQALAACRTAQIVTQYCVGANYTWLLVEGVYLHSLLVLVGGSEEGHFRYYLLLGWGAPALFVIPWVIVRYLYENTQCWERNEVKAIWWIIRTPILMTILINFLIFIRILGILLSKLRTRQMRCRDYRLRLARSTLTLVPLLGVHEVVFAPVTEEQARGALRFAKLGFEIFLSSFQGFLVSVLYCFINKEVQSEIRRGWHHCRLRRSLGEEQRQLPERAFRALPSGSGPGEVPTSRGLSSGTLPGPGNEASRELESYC
In words: [125I]-GIP binding, SPA with membranes of CHO cells expressing hGIPR. As to conditions: human GIPR; geometric mean (SEM, n); read-out: Binding Affinity Ki, nM (SEM, n) hGIPR.

The target in a further assay is T3, hGCGR (Homo sapiens, UniProt P47871).
T3 construct: expressed in transfected cells
T3 sequence (P47871 26-477): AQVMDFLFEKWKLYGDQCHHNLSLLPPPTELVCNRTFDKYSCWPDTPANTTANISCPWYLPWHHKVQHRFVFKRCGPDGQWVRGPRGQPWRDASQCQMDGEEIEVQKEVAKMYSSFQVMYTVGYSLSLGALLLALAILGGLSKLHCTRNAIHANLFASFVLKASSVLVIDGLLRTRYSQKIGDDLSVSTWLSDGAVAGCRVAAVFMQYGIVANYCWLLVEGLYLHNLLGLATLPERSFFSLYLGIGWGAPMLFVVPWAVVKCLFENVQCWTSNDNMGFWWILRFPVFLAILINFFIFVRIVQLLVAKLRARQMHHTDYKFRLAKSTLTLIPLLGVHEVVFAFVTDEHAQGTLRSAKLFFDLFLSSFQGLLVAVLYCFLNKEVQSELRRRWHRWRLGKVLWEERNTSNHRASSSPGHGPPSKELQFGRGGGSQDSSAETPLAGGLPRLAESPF
The assay can be described thus: Functional cAMP formation (HTRF) in HEK-293 clonal cells expressing hGCGR, 0.1% bovine casein, without or with 1.0% human serum albumin. Format: cell-based. As to conditions: read-out: hGCGR EC50, nM (SEM, n). An outline of the steps: as §1

Another assay addresses T4, hGIPR (Homo sapiens, UniProt P48546).
T4 construct: expressed in transfected cells
T4 sequence (P48546 22-466): T2 sequence (P48546 22-466)
In words: Functional cAMP formation (HTRF) in HEK-293 clonal cells expressing hGIPR, 0.1% bovine casein, without or with 1.0% human serum albumin. Type of assay: cell-based. As to conditions: for Emax: read-out: hGIPR Emax, % ± SEM; for EC50: cAMP, 0.1% bovine casein (no human serum albumin), geometric mean, read-out: hGIPR EC50, nM (SEM, n). An outline of the steps: as §1

Read-outs that look alike come from different tables or passages of the source.

A word on the Emax: it is the greatest response seen or fitted, relative to the assay's reference. In general, EC50 refers to the concentration at which the effect is half-maximal. The Ki is the dissociation constant of the complex between target and ligand, obtained from inhibition or displacement. Regarding `CCCCCCCCCCCC(=O)N[C@@H](CCC(=O)NCCOCCOCC(=O)NCCOCCOCC(=O)NCCOCCOCC(=O)NCCCC[C@H](NC(=O)[C@H](CCCN)NC(=O)[C@H](CC(=O)O)NC(=O)[C@H](CC(C)C)NC(=O)[C@](C)(CC(C)C)NC(=O)[C@@H](NC(=O)C(C)(C)NC(=O)[C@H](Cc1ccncc1)NC(=O)[C@H](CC(=O)O)NC(=O)[C@H](CO)NC(=O)[C@@H](NC(=O)[C@](C)(Cc1ccccc1F)NC(=O)[C@@H](NC(=O)CNC(=O)[C@H](CCC(=O)O)NC(=O)C(C)(C)NC(=O)[C@@H](N)Cc1ccc(O)cc1)[C@@H](C)O)[C@@H](C)O)[C@@H](C)CC)C(=O)N[C@@H](C)C(=O)N[C@@H](CCC(N)=O)C(=O)NC(C)(C)C(=O)N[C@@H](CCC(=O)O)C(=O)N[C@@H](Cc1ccccc1)C(=O)N[C@H](C(=O)N[C@H](CCC(=O)O)C(=O)N[C@@](C)(Cc1ccc(O)cc1)C(=O)N[C@@H](CC(C)C)C(=O)N[C@H](C(=O)N[C@@H](CCCCNC(=O)COCCOCCNC(=O)COCCOCCNC(=O)COCCOCCNC(=O)CC[C@H](NC(=O)CCCCCCCCCCC)C(=O)O)C(=O)NCC(=O)NCC(=O)N1CCC[C@H]1C(=O)N[C@@H](CO)C(=O)N[C@@H](CO)C(=O)NCC(=O)N[C@@H](C)C(=O)N1CCC[C@H]1C(=O)N1CCC[C@H]1C(=O)N1CCC[C@H]1C(=O)N[C@@H](CO)C(N)=O)[C@@H](C)CC)[C@@H](C)CC)C(=O)O` [Example 423], the Emax is 105% on hGLP-1R (HEK293, cAMP, 37° C., 0.1% bovine casein, percent of maximal response to GLP-1(7-36)NH2, arithmetic mean, read-out: hGLP-1R Emax, % ± SEM); 89.7% on hGIPR (HEK293, cAMP, 37° C., 0.1% bovine casein and 1.0% human serum albumin, percent of maximal response to GIP(1-42)NH2). Besides, the EC50 on hGLP-1R (37° C.) was 0.0721 nM; at hGCGR (cAMP, 37° C., 0.1% bovine casein (no human serum albumin), geometric mean), more than 9950 nM; at hGCGR (cAMP, 37° C., 0.1% bovine casein and 1.0% human serum albumin, geometric mean (SEM, n)), more than 9950 nM; at hGIPR (37° C.) it was 0.00658 nM. Also, the Ki in assay [1] was 0.275 nM; in assay [2] it was 0.0207 nM.
Take `CC[C@H](C)[C@H](NC(=O)[C@H](CC(C)C)NC(=O)[C@](C)(Cc1ccc(O)cc1)NC(=O)[C@@H](CCC(=O)O)NC(=O)[C@@H](NC(=O)[C@H](Cc1cc(F)cc(F)c1)NC(=O)[C@H](CCC(=O)O)NC(=O)C(C)(C)NC(=O)[C@H](CCC(N)=O)NC(=O)[C@H](C)NC(=O)[C@H](CCCCNC(=O)COCCOCCNC(=O)COCCOCCNC(=O)CC[C@H](NC(=O)CCCCCCCCCCCCC(=O)O)C(=O)O)NC(=O)[C@H](CCCN)NC(=O)[C@H](CC(=O)O)NC(=O)[C@H](CC(C)C)NC(=O)[C@](C)(CC(C)C)NC(=O)[C@@H](NC(=O)[C@H](CO)NC(=O)[C@H](Cc1ccncc1)NC(=O)[C@H](CC(=O)O)NC(=O)[C@H](CO)NC(=O)[C@@H](NC(=O)[C@](C)(Cc1ccccc1F)NC(=O)[C@@H](NC(=O)CNC(=O)[C@H](CCC(=O)O)NC(=O)C(C)(C)NC(=O)[C@@H](N)Cc1ccc(O)cc1)[C@@H](C)O)[C@@H](C)O)[C@@H](C)CC)[C@@H](C)CC)C(=O)N[C@@H](CCC(=O)O)C(=O)NCC(=O)NCC(=O)N[C@@H](CCCCNC(=O)COCCOCCNC(=O)COCCOCCNC(=O)CC[C@H](NC(=O)CCCCCCCCCCCCC(=O)O)C(=O)O)C(=O)N[C@@H](CO)C(=O)N[C@@H](CO)C(=O)NCC(=O)N[C@@H](C)C(=O)N1CCC[C@H]1C(=O)N1CCC[C@H]1C(=O)N1CCC[C@H]1C(=O)N[C@@H](CO)C(N)=O` [Example 65]: the EC50 was 0.3 nM on hGLP-1R (incubated at 37° C.); more than 9950 nM at hGCGR (0.1% bovine casein and 1.0% human serum albumin, 37° C., geometric mean); more than 9950 nM at hGCGR (cAMP, incubated at 37° C., 0.1% bovine casein (no human serum albumin), geometric mean); 0.0139 nM on hGIPR (incubated at 37° C.). Further, the Ki in assay [1] came to 1.05 nM; in assay [2] it was 0.121 nM. The Emax came out at 93.8 ± 6.73% on hGIPR (HEK293, 0.1% bovine casein and 1.0% human serum albumin, 37° C., percent of maximal response to GIP(1-42)NH2); 95.2 ± 2.93% at hGIPR (HEK293, percent of maximal response to GIP(1-42)NH2, 37° C., 0.1% bovine casein, arithmetic mean).

The values above are taken from US20230265151A1, “GIP/GLP1 CO-AGONIST COMPOUNDS” (priority 2020, published 2023).
